Laboratory results as given in the NIST ThermoML archive (doi:10.1021/je9008206).
Numbers after ± are expanded uncertainties.

Columns and labels:
[1] = Crystal; DTA
[2] = Molar enthalpy of transition or fusion; conditions: Crystal; DSC

| SMILES | Normal melting temperature [1] | Molar enthalpy of transition or fusion [2] |
| --- | --- | --- |
| O=C1OC(=O)c2c(Cl)cccc21 [3-chlorophthalic anhydride] | 124.80 ± 0.53 °C | 13.4 ± 0.86 kJ/mol |
| O=C1OC(=O)c2cc(Cl)ccc21 [4-chlorophthalic anhydride] | 94.20 ± 0.53 °C | 33.1 ± 1 kJ/mol |
